The values below come from BindingDB's records for doi:10.1016/j.ejmech.2019.111807 (Universitat De Barcelona, 2020).

A word on the IC50: it is the concentration that gives 50% inhibition.

This data set in a line: Bioactivation in CYP1A1 (unknown origin) transfected CHO cells assessed as CYP1A1-mediated drug activation by measuring reduction in cell viability.

SMILES strings stand for the structures.

Consider `CCCCCCc1c2c(c(C)c3c1C(=O)OC3)Oc1ccccc1O2`, for which the IC50 came out at 2.6 µM.

For `CCCCc1c2c(c(C)c3c1C(=O)OC3)Oc1ccccc1O2`, the IC50 amounted to 0.4 µM.
